Measured values reported in EP4692091A1, “CA[…], AND PHARMACEUTICAL COMPOSITION, PREPARATION METHOD THEREFOR AND USE THEREOF” (Changchun Genescience Pharmaceutical Co., Ltd., priority 2023, dated 2024).

Columns and labels:
Format in all cases: cell-based
MDA-MB-468 = test: Inhibition of proliferation of MDA-MB-468 cells by test compounds (CellTiter-Glo, 72 h); conditions: MDA-MB-468, 72 h incubation
Experimental: 3: Test method • (1) Cell plating: first, tumor cells MDA-MB-468 were cultured using a corresponding culture medium, trypsinized, centrifuged, resuspended for counting, adjusted to an appropriate concentration, and then plated on a 384-well plate. • (2) Co-incubation of the compounds and tumor cells: after the cells adhered to the wall, 100 nL of a diluted bioactive substance (test compound) was added to the cell culture plate using ECHO, the final concentration of DMSO in wells of the cell plate was 0.33%, and the incubation was performed in an incubator at 37°C with […] for 72 h. • (3) After the incubation was complete, 30 µL of a CTG reagent (CelltiterGlo kit) was added to each well. The culture was oscillated on a fast oscillator for 2 min, centrifuged at 1,000 rpm for 1 min, and kept away from light at room temperature for 30 min. The chemiluminescence signal value was read using an Envision instrument. • (4) Cell viability detection: IC50 was calculated using GraphPad Prism 8 software, and the IC50 of the compounds was obtained using the following nonlinear fitting formula (see Table 2): • 6. Y=Bottom+(Top-Bottom)/(1+10^((LogIC50-X)*HillSlope)) • 7. […] Table 2 Antiproliferative activity of test compounds on MDA-MB-468

SK-BR-3 = test: Inhibition of proliferation of SK-BR-3 cells by compounds (CellTiter-Glo, 72 h); conditions: SK-BR-3, 72 h incubation
Experimental: 3: Test method (1) Cell plating: first, tumor cells SK-BR-3 were cultured using a corresponding culture medium, trypsinized, centrifuged, resuspended for counting, adjusted to an appropriate concentration, and then plated on a 384-well plate. (2) Co-incubation of the compounds and tumor cells: after the cells adhered to the wall, 100 nL of a diluted bioactive substance (test compound) was added to the cell culture plate using ECHO, the final concentration of DMSO in wells of the cell plate was 0.33%, and the incubation was performed in an incubator at 37°C with 5% CO2 for 72 h. (3) After the incubation was complete, 30 µL of a CTG reagent (CelltiterGlo kit) was added to each well. The culture was oscillated on a fast oscillator for 2 min, centrifuged at 1,000 rpm for 1 min, and kept away from light at room temperature for 30 min. The chemiluminescence signal value was read using an Envision instrument. (4) Cell viability detection: IC50 was calculated using GraphPad Prism 8 software, and the IC50 of the compounds was obtained using the following nonlinear fitting formula (see Table 1) : 1. Y=Bottom+(Top-Bottom)/(1+10^((LogIC50-X)*HillSlope)) 2. […] Table 1 Antiproliferative activity of test compounds on SK-BR-3

NCI-N87 = test: Inhibition of proliferation of NCI-N87 cells by test compounds (CellTiter-Glo, 72 h); conditions: NCI-N87, 72 h incubation
Experimental: 3: Test method (1) Cell plating: first, tumor cells NCI-N87 were cultured using a corresponding culture medium, trypsinized, centrifuged, resuspended for counting, adjusted to an appropriate concentration, and then plated on a 384-well plate. (2) Co-incubation of the compounds and tumor cells: after the cells adhered to the wall, 100 nL of a diluted bioactive substance (test compound) was added to the cell culture plate using ECHO, the final concentration of DMSO in wells of the cell plate was 0.33%, and the incubation was performed in an incubator at 37°C with […] for 72 h. (3) After the incubation was complete, 30 µL of a CTG reagent (CelltiterGlo kit) was added to each well. The culture was oscillated on a fast oscillator for 2 min, centrifuged at 1,000 rpm for 1 min, and kept away from light at room temperature for 30 min. The chemiluminescence signal value was read using an Envision instrument. (4) Cell viability detection: IC50 was calculated using GraphPad Prism 8 software, and the IC50 of the compounds was obtained using the following nonlinear fitting formula (see Table 3) : 11. Y=Bottom+(Top-Bottom)/(1+10^((LogIC50-X)*HillSlope)) 12. […] Table 3 Antiproliferative activity of test compounds on cells NCI-N87

C=Cc1c(F)cc2nc3c(c4c2c1CCC4NC(=O)C[C@@H](C)O)Cn1c-3cc2c(c1=O)COC(=O)[C@]2(O)CC (stereo partly drawn) [7-2, (R)-N-((1R,9S)-9-ethyl-5-fluoro-9-hydroxy-10,13-dioxo-4-vinyl-2,3,9,10,13,15-hexahydro-1H,12H-benzo[de]pyrano[3',4',6,7]indolizino[1,2-b]quinolin-1-yl)-3-hydroxybutanamide]
IC50 (MDA-MB-468): 4.4 nM
IC50 (SK-BR-3): 7.6 nM
IC50 (NCI-N87): 4.9 nM

CC[C@@]1(O)C(=O)OCc2c1cc1n(c2=O)Cc2c-1nc1cc(F)c(OCC(F)(F)F)c3c1c2C(NC(=O)C[C@@H](C)O)CC3 (stereo partly drawn) [8-1, (R)-N-((1S,9S)-9-ethyl-5-fluoro-9-hydroxy-10,13-dioxo-4-(2,2,2-trifluoroethoxy)-2,3,9,10,13,15-hexahydro-1H,12H-benzo[de]pyrano[3',4',6,7]indolizino[1,2-b]quinolin-1-yl)-3-hydroxybutanamide]
IC50 (MDA-MB-468): 13 nM
IC50 (SK-BR-3): 44 nM
IC50 (NCI-N87): 4.2 nM

CC[C@@]1(O)C(=O)OCc2c1cc1n(c2=O)Cc2c-1nc1cc(F)c(C)c3c1c2[C@H](NC(=O)C[C@@H](C)O)CCO3 [24-1, (R)-N-((1R,10S)-10-ethyl-6-fluoro-10-hydroxy-5-methyl-11,14-dioxo-2,3,10,11,14,16-hexahydro-1H,13H-oxepino[4,3,2-de]pyrano[3',4':6,7]indolizino[1,2-b]quinolin-1-yl)-3-hydroxybutanamide]
IC50 (MDA-MB-468; Homo sapiens, MDA-MB-468, 72 h): 38 nM
IC50 (SK-BR-3; Homo sapiens, SK-BR-3, 72 h): 47 nM
IC50 (NCI-N87; Homo sapiens, NCI-N87, 72 h): 65 nM

CC[C@@]1(O)C(=O)OCc2c1cc1n(c2=O)Cc2c-1nc1cc(F)c(C)c3c1c2[C@@H](NC(=O)C[C@@H](C)O)CCO3 [24-2, (R)-N-((1S,10S)-10-ethyl-6-fluoro-10-hydroxy-5-methyl-11,14-dioxo-2,3,10,11,14,16-hexahydro-1H,13H-oxepino[4,3,2-de]pyrano[3',4':6,7]indolizino[1,2-b]quinolin-1-yl)-3-hydroxybutanamide]
IC50 (MDA-MB-468; Homo sapiens, MDA-MB-468, 72 h): 14 nM
IC50 (SK-BR-3; Homo sapiens, SK-BR-3, 72 h): 16 nM
IC50 (NCI-N87; Homo sapiens, NCI-N87, 72 h): 24 nM

CC[C@@]1(O)C(=O)OCc2c1cc1n(c2=O)Cc2c-1nc1cc(F)c(C)c3c1c2[C@@H](NC(=O)[C@H](O)C1CC1)CCO3 [35-1, (R)-2-cyclopropyl-N-((1S,10S)-10-ethyl-6-fluoro-10-hydroxy-5-methyl-11,14-dioxo-2,3,10,11,14,16-hexahydro-1H,13H-oxepino[4,3,2-de]pyrano[3',4':6,7]indolizino[1,2-b]quinolin-1-yl)-2-hydroxyacetamide]
IC50 (MDA-MB-468; Homo sapiens, MDA-MB-468, 72 h): 12 nM
IC50 (SK-BR-3; Homo sapiens, SK-BR-3, 72 h): 16 nM
IC50 (NCI-N87; Homo sapiens, NCI-N87, 72 h): 14 nM

CC[C@@]1(O)C(=O)OCc2c1cc1n(c2=O)Cc2c-1nc1cc(F)c(C)c3c1c2[C@@H](NC(=O)[C@@H](O)C1CC1)CCO3 [35-2, (S)-2-cyclopropyl-N-((1S,10S)-10-ethyl-6-fluoro-10-hydroxy-5-methyl-11,14-dioxo-2,3,10,11,14,16-hexahydro-1H,13H-oxepino[4,3,2-de]pyrano[3',4':6,7]indolizino[1,2-b]quinolin-1-yl)-2-hydroxyacetamide]
IC50 (MDA-MB-468; Homo sapiens, MDA-MB-468, 72 h): 9 nM
IC50 (SK-BR-3; Homo sapiens, SK-BR-3, 72 h): 9 nM
IC50 (NCI-N87; Homo sapiens, NCI-N87, 72 h): 10 nM

CC[C@@H](O)CC(=O)N[C@H]1CCCc2c(C)c(F)cc3nc4c(c1c23)Cn1c-4cc2c(c1=O)COC(=O)[C@]2(O)CC [36-1, (R)-N-((1S,10S)-10-ethyl-6-fluoro-10-hydroxy-5-methyl-11,14-dioxo-1,2,3,4,10,11,14,16-octahydro-13H-cyclohepta[3',4':6,7]indolizino[1,2-b]quinolin-1-yl)-3-hydroxypentanamide]
IC50 (MDA-MB-468): 14 nM
IC50 (SK-BR-3): 9.2 nM
IC50 (NCI-N87): 8.5 nM

CC[C@H](O)CC(=O)N[C@H]1CCCc2c(C)c(F)cc3nc4c(c1c23)Cn1c-4cc2c(c1=O)COC(=O)[C@]2(O)CC [36-2, (S)-N-((1S,10S)-10-ethyl-6-fluoro-10-hydroxy-5-methyl-11,14-dioxo-1,2,3,4,10,11,14,16-octahydro-13H-cyclohepta[3',4':6,7]indolizino[1,2-b]quinolin-1-yl)-3-hydroxypentanamide]
IC50 (MDA-MB-468): 6.4 nM
IC50 (SK-BR-3): 4.4 nM
IC50 (NCI-N87): 3.9 nM
